Results on 4 molecules are retold here after US12612392B2, “Compound, pharmaceutical compositions containing same, synthesis method therefor and use thereof” (SHENZHEN ZHONGGE BIOLOGICAL TECHNOLOGY CO., LTD., priority 2022, dated 2026).

Data set [1] relates to model animals. The note with it: oral administration for three days; cited from earlier work.
Data set [2] deals with healthy participants. Conditions: Phase 1, healthy participants; cited from earlier work.
Data set [3] has as its system mouse models. Conditions: cited from earlier work.
The nature of data set [4]: In vitro liver microsome stability. Format: in vitro ADME. The note with it: liver microsomes, NADPH, 37° C. On the procedure: A 5 mM MgCl2 100 mM K-Mg buffer solution was pre-heated. 5 μL of a 10 mM compound and a reference stock solution were added to 95 μL of acetonitrile (ACN) to prepare a spiked solution. 1.5 μL of a 500 µM spiked solution and 18.75 μL of 20 mg/mL liver microsomes were added to 479.8 μL of the K-Mg buffer solution. NADPH was dissolved in the K-Mg-buffer solution to prepare an NADPH stock solution ([…]). At different time points (0, 5, 15, 30 and 45 minutes), 30 μL of a 1.5 μM spiked solution containing the microsomes was evenly dropped into an assay plate. The plate was preincubated at 37° C. for 5 minutes. At 0 min, 200 μL of ACN containing IS (internal standard, tolbutamid/terfenadine) was added to the wells, and then 15 μl of the NADPH stock solution (6 mM) was added. For other time points, 15 μL of the NADPH stock solution (6 mM) was added to the wells to initiate the reaction and start the timing. At 5, 15, 30 and 45 min, the reaction was stopped by adding 200 μL of ACN containing IS to the corresponding wells of the plate. After quenching, the plate was shaken at 600 rpm for 10 minutes and then centrifuged at 4000 rpm for 50 minutes. 80 μL of the supernatant from each well was transferred to a 96-well sample plate containing 160 μL of pure water for UPLC/MS/MS analysis.
(Liver microsomes are a subcellular fraction often used to study metabolism.)

With `NC(CO)(CO)CO.O=C(COc1ccc(Cl)c(F)c1)NC12CCC(NC(=O)COc3ccc(Cl)c(F)c3)(CC1)[C@@H](OCOP(=O)([O-])O)C2.[Na+]` [ABBV-CLS-7262], the “brain function of model animals” value in data set [1] is reported as “restored to youthful levels”. `O=C(COc1ccc(Cl)cc1)NC12CC(c3nnc([C@H]4C[C@@H](OC(F)(F)F)C4)o3)(C1)C2` [DNL-343]: the safety and tolerability result in data set [2] was “demonstrated its safety and tolerability”. As for `O=C(COc1ccc(Cl)cc1)NC1CCC(NC(=O)COc2ccc(Cl)cc2)CC1` (stereo not shown) [ISRIB], the “long-term memory in mouse models” value in data set [3] is “improve long-term memory”. The half-life is the time in which the quantity being followed falls by half. A higher half-life goes with slow loss. Turning to `O=C(c1ccc(F)cc1)C1CCN(CCn2c(=O)[nH]c3ccccc3c2=O)CC1` [Ketanserin, reference compound], in data set [4], the half-life at 1 µM came to 36.8 min.
